Experiments:
[1] = system: PANC-1, C6, MCF-7, U20S and HT1080 cell lines; conditions: 48 hours; for reduction in cell survival, drug alone: non-resistant cell lines, 0.1 μg/ml DOX, 0.3 μg/ml VIN
[2] = Animals' body weight (treatment toxicity) in P388/WT and P388/ADR models; assay type: in vivo, mice; conditions: fluoxetine 0.04 mg/kg daily oral only; DOX 3 mg/kg days 1, 5, 9; both tumor models
Description: (§1) P388/WT (non-resistant) or P388/ADR (MDR-acquired) murine leukemia cells were propagated in the peritoneum of BDF1 female mice by weekly transfer of 0.5 ml of peritoneal fluid containing 5×10^5 cells, to generate an intraperitoneal ascites model.
(§2) In both models, Doxorubicin (DOX) was tested. Doses of 3 mg/kg body were injected into the lateral tail vain, 1, 5 and 9 days after tumor inoculation.
(§3) Comparative experiments were run in parallel with the sensitive, non-resistant P388/WT model and the corresponding, MDR-acquired P388/ADR model. […] A group of untreated healthy animals was served as a control group. […] The fluoxetine was given in the drinking water, from tumor inoculation and on. Doxorubicin was injected into the lateral tail vain 1, 5 and 9 days post tumor inoculation. The effects of the various treatments on tumor response were monitored through animals' survival and animals' body weight. The latter was monitored in order to assess the treatment toxicity.

P388/WT cell line = assay: MTT cell viability, non-resistant cell line; assay type: cell-based, murine
Description: (§4) After 4 hours incubation, the treatment media was replaced with CS- and CT-free media and the experiment was terminated 24 hours later.

P388/ADR cell line = assay: MTT cell viability, MDR-acquired cell line; assay type: cell-based, murine; conditions: for increase in cell death, combined treatment with DOX: DOX (1, 5, 10 μg/ml) + 5 μM chemosensitizer
Description: as §4

C6 cells = conditions: cells loaded with 0.1 μg/ml DOX alone
C-26 cells [3] = assay: Solid tumor model (inherent MDR); assay type: in vivo, mice; conditions: for solid tumor volume with time, single agent: fluoxetine 0.04 mg/kg daily oral alone, MMC or DOX 5 mg/kg i.v. alone
Description: In the solid tumor model, MDR-inherent C-26 cells were injected into the animal's right-hind footpad.
In the solid tumor model, Mitomycin C (MMC) and Doxorubicin (DOX) were tested separately, each at a dose of 5 mg/kg body.

P388/ADR cells [4] = assay: Intracellular accumulation of Doxorubicin, confocal microscopy (system II); assay type: cell-based, murine
Description: (§5) At the end of the incubation time, the cells were washed 6 times with PBS, fixed with a mounting medium (Mounting medium with anti-fading agents, Biomeda corp., CA, USA) and were analysed by Confocal microscopy (Zeiss LSM 510). Excitation was at 488 nm and emission was measured using a band pass filter of 505-550 nm.

B16F10 cells = assay: Lung metastasis model (inherent MDR); assay type: in vivo, mice; conditions: for lung metastatic burden (lung weight, number of metastasis), single agent: Doxorubicin 10 mg/kg alone, chemosensitizer 0.04 mg/kg daily oral alone
C-26 cells [5] = assay: Intracellular accumulation of Rhodamine-123, confocal microscopy (system II); assay type: cell-based, murine; conditions: 5 μM Rhodamine-123 + […] μM chemosensitizer, monolayers
Description: as §5

P388/ADR = assay: Intraperitoneal ascites model, MDR-acquired tumor, survival; assay type: in vivo, mice; conditions: DOX 3 mg/kg + fluoxetine 0.04 mg/kg daily oral
[6] = cited from earlier work
[7] = system: B16F10 and C-26 cell lines; conditions: Mitomycin C 50 μg/ml or Doxorubicin 1.0 μg/ml with 15 μM fluoxetine
P388/WT = assay: Intraperitoneal ascites model, non-resistant tumor, survival; assay type: in vivo, mice; conditions: DOX 3 mg/kg + fluoxetine 0.04 mg/kg daily oral
Description: as §1, §2, §3

P388/ADR cells [8] = assay: Intracellular accumulation of Rhodamine-123, flow cytometry (system I); assay type: cell-based, murine; conditions: 5 μM Rhodamine-123 + […] μM chemosensitizer, suspended cells
Text: The cells were thereafter analyzed for intracellular fluorescence, using a flow cytometer (Becton-Dickinson, USA). Excitation and emission were at 485 nm and 547 nm, respectively.

C6 and PANC-1 cells = system: C6 and PANC-1 cells; design: dose or concentration left out as unconfirmed; conditions: […] μM fluoxetine alone, 24 hours
[9] = fluoxetine alone 1-20 μM, 4 hours then 20 hours CS-free media

Structure (SMILES): CC[C@]1(O)C[C@@H]2CN(CCc3c([nH]c4ccccc34)[C@@](C(=O)OC)(c3cc4c(cc3OC)N(C)[C@H]3[C@@](O)(C(=O)OC)[C@H](OC(C)=O)[C@]5(CC)C=CCN6CC[C@]43[C@@H]65)C2)C1 [Vinblastine]
- reduction in cell survival, drug alone [1]: 50%

Structure (SMILES): COc1cccc2c1C(=O)c1c(O)c3c(c(O)c1C2=O)C[C@@](O)(C(=O)CO)C[C@@H]3O[C@H]1C[C@H](N)[C@H](O)[C@H](C)O1 [Doxorubicin]
- change in body weight, single agent [2]: minor weight decrease
- cell death (P388/WT cell line; 0.5 μg/ml DOX alone): about 50%
- cell death (P388/WT cell line; 5 μg/ml DOX alone): 100%
- cell death (P388/ADR cell line; 5 μg/ml DOX alone): < 20%
- cell death (P388/ADR cell line; doubled drug concentration (10 μg/ml DOX) alone): about 30%
- time for complete depletion of intracellular DOX (C6 cells): ≤ 2 h
- solid tumor volume with time, single agent (C-26 cells [3]): increases fast and exponentially
- intracellular accumulation of doxorubicin alone (confocal images) (P388/ADR cells [4]; 5 μg/ml Doxorubicin alone): quite poor
- reduction in cell survival, drug alone [1]: 50%
- lung metastatic burden (lung weight, number of metastasis), single agent (B16F10 cells): only a mild reduction in the metastatic burden

Structure (SMILES): CNCCC(Oc1ccc(C(F)(F)F)cc1)c1ccccc1 (centres unmarked) [fluoxetine, N-methyl 3-(p-trifluoromethylphenoxy)-3-phenylpropylamine]
- intracellular accumulation of Rhodamine-123 (confocal images) (C-26 cells [5]): substantially higher increase in the intracellular accumulation of Rhodamine-123
- elongated life span, combination of fluoxetine and DOX (P388/ADR): more than 2 fold
- safe, substantially side effect-free daily dose range [6]: 10-15 mg/M^2
- cell death, combination of the drug and fluoxetine [7]: 80-90%
- change in body weight, single agent [2]: no weight loss
- effect of combination treatment on level of cells death (P388/WT cell line; DOX with 5 μM fluoxetine vs DOX alone): had no effect on the level of cells death
- effect on cells viability (P388/WT cell line; [9]): no effect on cells viability
- increase in cell death, combined treatment with DOX (P388/ADR cell line): significant increase
- increase in cell death as compared with Verapamil and CsA (P388/ADR cell line; DOX + 5 μM fluoxetine vs DOX + 5 μM Verapamil or CsA): 2-3 fold
- effect on cells viability (P388/ADR cell line; [9]): no effect on cells viability
- animals' survival, combined DOX and fluoxetine (P388/WT): had no effect on animal's survival
- survival prolonged vs saline, CS alone and CT alone (C-26 cells [3]; DOX+CS (DOX 5 mg/kg, fluoxetine 0.04 mg/kg daily oral)): 3 fold
- survival prolonged vs saline, CS alone and CT alone (C-26 cells [3]; MMC+CS (MMC 5 mg/kg, fluoxetine 0.04 mg/kg daily oral)): 2 fold
- solid tumor growth, combination therapy (C-26 cells [3]; fluoxetine 0.04 mg/kg daily oral + MMC or DOX 5 mg/kg): tumor growth is significantly slower
- solid tumor volume with time, single agent (C-26 cells [3]): increases fast and exponentially
- intracellular level of DOX (confocal images) (P388/ADR cells [4]; 5 μg/ml Doxorubicin + 5 μM fluoxetine, monolayers): substantial increase in the intracellular level of DOX
- increase of intracellular Rhodamine-123 fluorescence vs chemosensitizer-free control (P388/ADR cells [8]): about 200%
- toxicity to the cells ([1]; fluoxetine alone, 0-15 μM): not toxic to the cells
- survival, CS alone (B16F10 cells; 75-days experiment): died rather early
- survival, combination treatment (B16F10 cells; CS + Doxorubicin, 75-days experiment): long survivors
- lung metastatic burden (lung weight, number of metastasis), single agent (B16F10 cells): highest metastatic burden
- lung metastatic burden, combination treatment (B16F10 cells; chemosensitizer + Doxorubicin 10 mg/kg): substantial reduction
- effect on cell survival (C6 and PANC-1 cells): does not affect cell survival at all

Structure (SMILES): COc1ccc(CCN(C)CCCC(C#N)(c2ccc(OC)c(OC)c2)C(C)C)cc1OC (centres unmarked) [Verapamil]
- intracellular accumulation of Rhodamine-123 (confocal images) (C-26 cells [5]): an increase in the intracellular level of Rhodamine-123
- increase in cell death, combined treatment with DOX (P388/ADR cell line): modest increase in cell death
- increase of intracellular Rhodamine-123 fluorescence vs chemosensitizer-free control (P388/ADR cells [8]): about 60%

Structure (SMILES): CO[C@@]12[C@H](COC(N)=O)C3=C(C(=O)C(C)=C(N)C3=O)N1C[C@@H]1N[C@@H]12 [Mitomycin C]
- solid tumor volume with time, single agent (C-26 cells [3]): increases fast and exponentially
